Paper PMC3470887, “Protegrin-1 Inhibits Dengue NS2B-NS3 Serine Protease and Viral Replication in MK2 Cells” (Journal of Biomedicine and Biotechnology, 2012)

What was measured:
dengue NS2B-NS3pro = dengue NS2B-NS3pro (Dengue virus type 2, UniProt P14340); assay: Dengue NS2B-NS3pro protease inhibition assay (fluorogenic substrate Boc-Gly-Arg-Arg-MCA); type: biochemical, DENV-2
Protocol: The bioassay used in this study was modified from the method published by Kiat and coworkers. Reaction mixtures with total volume of 200 μL were prepared. These reaction mixtures consisted of 100 μM fluorogenic peptide substrate (Boc-Gly-Arg-Arg-MCA), 2 μM NS2B-NS3pro complex, with or without PG-1 of varying concentrations, buffered at pH 8.5 with 200 mM Tris-HCl. The PG-1 was initially prepared in Tris-HCl buffer and assayed at five different concentrations. The reaction mixtures without fluorogenic peptide substrate were firstly incubated at 37°Cfor 30 minutes. Subsequently, the substrate was added and the mixture was further incubated at the same temperature for 30 minutes. Triplicates were performed for all measurements and the readings were taken using Tecan Infinite M200 Pro fluorescence spectrophotometer. Substrate cleavage was optimized at the emission at 440 nm upon excitation at 350 nm. The readings were then used for calculating Km values of peptide substrate and IC50 values of peptide inhibitors using nonlinear regression models in GraphPad Prism 5.01 software.

DENV-2 = DENV-2 replication in infected MK2 cells, viral RNA by real-time PCR; type: cell-based, Dengue virus serotype 2; settings: inferred from lower inhibition percentage of low concentrations at 48 and 72 hrs versus 24 hrs
Protocol: The MK2 cell lines were grown in a 24-well tissue culture plate (1 × 10^5 cells/well), incubated 24 hrs under optimal conditions (37°C and 5% CO2). DENV-2 was added to the wells (MOI of 2) followed by incubation for 1 hr with gentle shaking every 10 min for optimal virus to cell contact. The virus supernatant was removed, and the cells were washed twice with fresh serum free DMEM media to remove residual virus. New complete DMEM media containing 2.5, 7.5 and 12.5 μM of PG-1 were added and the cultures were incubated for 24, 48 and 72 hrs. Afterwards, cellular supernatants were collected and stored at −80°C for viral quantification by real-time PCR.
For quantification of DENV-2 copies, the standard curve was generated by 10-fold serial dilution of known copies of DENV-2 RNA. Viral RNA was extracted from culture supernatant using QIAmp viral RNA minikit (QIAGEN, Germany) according to the manufacturer's instructions. A fragment located at the 5′UTR region of the virus genome was used to generate the primers. One-step RT-PCR using SyBr Green Master Kit (Qiagen, Germany) was used to conduct absolute quantification using ABI7300 machine from Applied Biosystems (Foster City, CA). […] Results were analyzed using Sequence Detection Software Version 1.3 (Applied Biosystems, Foster City, CA, USA).

Chain of dengue NS2B-NS3pro (P14340 1394-1440 limits assumed): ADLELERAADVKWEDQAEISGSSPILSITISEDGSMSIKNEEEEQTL
Chain of dengue NS2B-NS3pro (P14340 1476-1660 limits assumed): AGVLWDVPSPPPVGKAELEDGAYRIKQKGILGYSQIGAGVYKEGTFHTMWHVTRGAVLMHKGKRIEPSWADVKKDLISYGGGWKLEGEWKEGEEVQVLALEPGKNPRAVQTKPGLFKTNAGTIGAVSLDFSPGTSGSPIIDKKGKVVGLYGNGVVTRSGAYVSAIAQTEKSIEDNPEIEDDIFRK

CC(C)C[C@H](NC(=O)[C@H](CCCNC(=N)N)NC(=O)CNC(=O)CNC(=O)[C@@H](N)CCCNC(=N)N)C(=O)N[C@H]1CSSC[C@@H](C(=O)N[C@H](C(=O)NCC(=O)N[C@@H](CCCNC(=N)N)C(N)=O)C(C)C)NC(=O)[C@H](C(C)C)NC(=O)[C@@H]2CSSC[C@H](NC(=O)[C@H](Cc3ccc(O)cc3)NC1=O)C(=O)N[C@@H](CCCNC(=N)N)C(=O)N[C@@H](CCCNC(=N)N)C(=O)N[C@@H](CCCNC(=N)N)C(=O)N[C@@H](Cc1ccccc1)C(=O)N2 [PG-1]
IC50 (dengue NS2B-NS3pro; 2 μM NS2B-NS3pro, 100 μM Boc-Gly-Arg-Arg-MCA, 200 mM Tris-HCl pH 8.5, 37°C, 30 min pre-incubation + 30 min, triplicates, nonlinear regression GraphPad Prism): 11.7 µM | inhibition at 40 µM (dengue NS2B-NS3pro; PG-1 at 40 μM, assayed at five concentrations, 10–160 μM): 95.7% | Ki (dengue NS2B-NS3pro; kinetic assay, PG-1 0, 2.5, 5, 10 and 20 μM, Michaelis-Menten nonlinear regression, GraphPad Prism, read-out: Ki (inhibition constant)): 5.85 µM | PG-1 stability in culture media (DENV-2): declined with longer incubation in culture media
